# Measurements published in patent US9120791B2, “Indolizine compounds, a process for their preparation and pharmaceutical compositions containing them” (LES LABORATOIRES SERVIER, priority 2012, dated 2015).
# Counter-ions that a name gives are not always drawn. Like-named read-outs stand apart in the source and are kept apart here.
# Experiments:
# Bcl-2 protein = Bcl-2 protein (Homo sapiens (Human), UniProt P10415); assay: Inhibition of Bcl-2 by the fluorescence polarisation technique; assay type: binding; settings: read-out: IC50 (nM) Bcl-2 FP
# Protocol: The fluorescence polarisation tests were carried out on microplates (384 wells). […] After incubation for 2 hours, the fluorescence polarisation is measured.
# [1] = tested on: RS4;11 leukaemia tumour line; assay: In vitro cytotoxicity (Microculture Tetrazolium Assay, 48 hours); assay type: cell-based; settings: RS4;11 cells, 48 hours exposure, MTT, concentration that inhibits cell viability by 50%, read-out: IC50 (nM) MTT RS4
# Protocol: The cytotoxicity studies were carried out on the RS4;11 leukaemia tumour line.
# The cells are distributed onto microplates and exposed to the test compounds for 48 hours.
# [2] = fluorescence polarisation test, concentration that inhibits fluorescence polarisation by 50%
# Bcl-2 protein, sequence (P10415 whole entry): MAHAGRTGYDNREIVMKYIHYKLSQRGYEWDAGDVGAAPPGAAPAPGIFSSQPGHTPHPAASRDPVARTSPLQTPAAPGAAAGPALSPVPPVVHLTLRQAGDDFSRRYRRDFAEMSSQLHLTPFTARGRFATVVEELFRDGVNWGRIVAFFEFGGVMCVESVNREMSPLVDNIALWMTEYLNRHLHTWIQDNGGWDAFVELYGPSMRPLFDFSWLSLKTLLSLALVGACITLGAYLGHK
IC50 (Bcl-2 protein; [2]),Compound,IC50 ([1]; Homo sapiens),other results
14 nM,"CN1CCN(C[C@@H]2Cc3ccccc3CN2C(=O)c2ccc(Cl)cc2-c2cc(C(=O)N(c3ccc(O)cc3)c3ccc4c(ccn4C)c3)c3ccccn23)CC1 [Example 65, 3-{5-Chloro-2-[((3S)-3-[(4-methyl-1-piperazinyl)methyl]-3,4-dihydro-2(1H)-isoquinolinyl)carbonyl]phenyl}-N-(4-hydroxyphenyl)-N-(1-methyl-1H-indol-5-yl)-1-indolizine carboxamide bis(hydrochloride)]",9.19 nM,–
25 nM,"CCN(CC)c1ccc(N(C(=O)c2cc(-c3cc(Cl)ccc3C(=O)N3Cc4ccccc4C[C@H]3CN3CCOCC3)n3c2CCCC3)c2ccc(O)cc2)cc1 [Example 28, 3-{5-Chloro-2-[((3S)-3-(4-morpholinylmethyl)-3,4-dihydro-2(1H)-isoquinolinyl)carbonyl]phenyl}-N-[4-(diethylamino)phenyl]-N-(4-hydroxyphenyl)-5,6,7,8-tetrahydro-1-indolizine carboxamide hydrochloride]",76.1 nM,–
30 nM,"O=C(c1cc(-c2cc(Cl)ccc2C(=O)N2Cc3ccccc3C[C@H]2CN2CCOCC2)n2c1CCCC2)N(c1ccc(O)cc1)c1cccc(Cl)c1 [Example 131, 3-(5-Chloro-2-{[(3S)-3-(morpholin-4-ylmethyl)-3,4-dihydroisoquinolin-2(1H)-yl]carbonyl}phenyl)-N-(3-chlorophenyl)-N-(4-hydroxyphenyl)-5,6,7,8-tetrahydroindolizine-1-carboxamide hydrochloride]",88.4 nM,–
–,"C[C@H]1COCCN1C[C@@H]1Cc2ccccc2CN1C(=O)c1cc2c(cc1-c1cc(C(=O)N(c3ccc(O)cc3)c3ccc4c(ccn4C)c3)c3n1CCCC3)OCO2 [Example 16, N-(4-Hydroxyphenyl)-N-(1-methyl-1H-indol-5-yl)-3-{6-[((3S)-3-{[(3S)-3-methylmorpholinyl]methyl}-3,4-dihydro-2(1H)-isoquinolinyl)carbonyl]-1,3-benzodioxol-5-yl}-5,6,7,8-tetrahydro-1-indolizine carboxamide hydrochloride]",–,IC50 (Bcl-2 protein): 18 nM; IC50 [1]: 23.4 nM
15 nM,"O=C(c1cc(-c2cc(Cl)ccc2C(=O)N2Cc3ccccc3C[C@H]2CN2CCOCC2)n2c1CCCC2)N(c1ccc(O)cc1)c1ccc(F)cc1F [Example 117, 3-(5-Chloro-2-{[(3S)-3-(morpholin-4-ylmethyl)-3,4-dihydroisoquinolin-2(1H)-yl]carbonyl}phenyl)-N-(2,4-difluorophenyl)-N-(4-hydroxyphenyl)-5,6,7,8-tetrahydroindolizine-1-carboxamide hydrochloride]",194 nM,–
34 nM,"Cn1ccc2cc(N(C(=O)c3cc(-c4cc(Cl)ccc4C(=O)N4Cc5ccccc5C[C@H]4CN4CCOCC4)n4c3CCCC4)c3ccc(O)c(F)c3)ccc21 [Example 55, 3-{5-Chloro-2-[((3S)-3-(4-morpholinylmethyl)-3,4-dihydro-2(1H)-isoquinolinyl)carbonyl]phenyl}-N-(3-fluoro-4-hydroxyphenyl)-N-(1-methyl-1H-indol-5-yl)-5,6,7,8-tetrahydro-1-indolizine carboxamide hydrochloride]",19.4 nM,–
10 nM,"CN1CCN(C[C@@H]2Cc3ccccc3CN2C(=O)c2cc3c(cc2-c2cc(C(=O)N(c4ccccc4)c4ccc(O)cc4)c4n2CCCC4)OCO3)CC1=O [Example 128, N-(4-Hydroxyphenyl)-3-(6-{[(3S)-3-[(4-methyl-3-oxopiperazin-1-yl)methyl]-3,4-dihydroisoquinolin-2(1H)-yl]carbonyl}-1,3-benzodioxol-5-yl)-N-phenyl-5,6,7,8-tetrahydroindolizine-1-carboxamide hydrochloride]",63.4 nM,–
–,"Cl.[2H]C1([2H])Oc2cc(C(=O)N3Cc4ccccc4C[C@H]3CN3CCOCC3)c(-c3cc(C(=O)N(c4ccccc4)c4ccc(O)cc4)c4n3CCCC4)cc2O1 [Example 38, N-(4-Hydroxyphenyl)-3-{2,2-dideuterio-6-[((3S)-3-(4-morpholinylmethyl)-3,4-dihydro-2(1H)-isoquinolinyl)carbonyl]-1,3-benzodioxol-5-yl}-N-phenyl-5,6,7,8-tetrahydro-1-indolizine carboxamide hydrochloride]",61.8 nM,–
–,"O=C(c1cc(-c2cc(Cl)ccc2C(=O)N2Cc3ccccc3C[C@H]2CN2CCOCC2)n2c1CCCC2)N(c1ccc(O)cc1)c1cccnc1 [Example 142, 3-(5-Chloro-2-{[(3S)-3-(morpholin-4-ylmethyl)-3,4-dihydroisoquinolin-2(1H)-yl]carbonyl}phenyl)-N-(4-hydroxyphenyl)-N-(pyridin-3-yl)-5,6,7,8-tetrahydroindolizine-1-carboxamide bis(hydrochloride)]",66.1 nM,–
–,"COCCN(C)C[C@@H]1Cc2ccccc2CN1C(=O)c1cc2c(cc1-c1cc(C(=O)N(c3ccccc3)c3ccc(O)cc3)c3n1CCCC3)OCO2 [Example 146, N-(4-Hydroxyphenyl)-3-(6-{[(3S)-3-{[(2-methoxyethyl)(methyl)amino]-methyl}-3,4-dihydroisoquinolin-2(1H)-yl]carbonyl}-1,3-benzodioxol-5-yl)-N-phenyl-5,6,7,8-tetrahydroindolizine-1-carboxamide hydrochloride]",153 nM,–
–,"O=C(c1cc(-c2cc3c(cc2C(=O)N2Cc4ccccc4C[C@H]2CN2CCOCC2)OCO3)n2c1CCCC2)N(c1ccccc1)c1ccc(O)cc1 [Example 1, N-(4-Hydroxyphenyl)-3-{6-[((3S)-3-(4-morpholinylmethyl)-3,4-dihydro-2(1H)-isoquinolinyl)carbonyl]-1,3-benzdioxol-5-yl}-N-phenyl-5,6,7,8-tetrahydro-1-indolizine carboxamide hydrochloride]",60.1 nM,–
–,"O=C(c1cc(-c2cc(Cl)ccc2C(=O)N2Cc3ccccc3C[C@H]2CN2CCOCC2)n2c1CCCC2)N(c1ccncc1)c1ccc(O)cc1 [Example 144, 3-(5-Chloro-2-{[(3S)-3-(morpholin-4-ylmethyl)-3,4-dihydroisoquinolin-2(1H)-yl]carbonyl}phenyl)-N-(4-hydroxyphenyl)-N-(pyridin-4-yl)-5,6,7,8-tetrahydroindolizine-1-carboxamide bis(hydrochloride)]",59.9 nM,–
–,"CCOc1ccc(C(=O)N2Cc3ccccc3C[C@H]2CN2CCOCC2)c(-c2cc(C(=O)N(c3ccc(O)cc3)c3ccc4c(ccn4C)c3)c3n2CCCC3)c1 [Example 36, 3-{5-Ethoxy-2-[((3S)-3-(4-morpholinylmethyl)-3,4-dihydro-2(1H)-isoquinolinyl)carbonyl]phenyl}-N-(4-hydroxyphenyl)-N-(1-methyl-H-indol-5-yl)-5,6,7,8-tetrahydro-1-indolizine carboxamide hydrochloride]",–,IC50 [1]: 135 nM
–,"COc1c(F)cc(N(C(=O)c2cc(-c3cc(Cl)ccc3C(=O)N3Cc4ccccc4C[C@H]3CN3CCOCC3)n3c2CCCC3)c2ccc(O)cc2)cc1F [Example 143, 3-(5-Chloro-2-{[(3S)-3-(morpholin-4-ylmethyl)-3,4-dihydroisoquinolin-2(1H)-yl]carbonyl}phenyl)-N-(3,5-difluoro-4-methoxyphenyl)-N-(4-hydroxyphenyl)-5,6,7,8-tetrahydroindolizine-1-carboxamide hydrochloride]",43.8 nM,–
–,"O=C(c1cc(-c2cc3c(cc2C(=O)N2Cc4ccccc4C[C@H]2CN2CCS(=O)(=O)CC2)OCO3)n2c1CCCC2)N(c1ccccc1)c1ccc(O)cc1 [Example 147, 3-(6-{[(3S)-3-[(1,1-Dioxidothiomorpholin-4-yl)methyl]-3,4-dihydroisoquinolin-2(1H)-yl]carbonyl}-1,3-benzodioxol-5-yl)-N-(4-hydroxyphenyl)-N-phenyl-5,6,7,8-tetrahydroindolizine-1-carboxamide hydrochloride]",74.2 nM,–
–,"Cn1ccc2cc(N(C(=O)c3cc(-c4cc5c(cc4C(=O)N4Cc6ccccc6C[C@H]4CN4CCOCC4)OCO5)n4c3CCCC4)c3ccc(O)cc3)ccc21 [Example 10, N-[4-(Hydroxy)phenyl]-N-(1-methyl-1H-indol-5-yl)-3-{6-[((3S)-3-(4-morpholinylmethyl)-3,4-dihydro-2(1H)-isoquinolinyl)carbonyl]-1,3-benzodioxol-5-yl}-5,6,7,8-tetrahydro-1-indolizine carboxamide hydrochloride]",11 nM,–
–,"Cn1ccc2cc(N(C(=O)c3cc(-c4cc5c(cc4C(=O)N4Cc6ccccc6C[C@H]4CN4CCOCC4)OCO5)n4c3CCCCC4)c3ccc(O)cc3)ccc21 [Example 84, hydrochloride]",20.6 nM,–
–,"COc1ccc(N(C(=O)c2cc(-c3cc(Cl)ccc3C(=O)N3Cc4ccccc4C[C@H]3CN3CCOCC3)n3c2CCCC3)c2ccc(O)cc2)cc1F [Example 145, 3-(5-Chloro-2-{[(3S)-3-(morpholin-4-ylmethyl)-3,4-dihydroisoquinolin-2(1H)-yl]carbonyl}phenyl)-N-(3-fluoro-4-methoxyphenyl)-N-(4-hydroxyphenyl)-5,6,7,8-tetrahydroindolizine-1-carboxamide hydrochloride]",28.9 nM,–
–,"O=C(c1cc(-c2cc(Cl)ccc2C(=O)N2Cc3ccccc3C[C@H]2CN2CCOCC2)n2c1CCCC2)N(c1ccc(O)cc1)c1cncnc1 [Example 141, 3-(5-Chloro-2-{[(3S)-3-(morpholin-4-ylmethyl)-3,4-dihydroisoquinolin-2(1H)-yl]carbonyl}phenyl)-N-(4-hydroxyphenyl)-N-(pyrimidin-5-yl)-5,6,7,8-tetrahydroindolizine-1-carboxamide hydrochloride]",72.5 nM,–
–,"Cl.[2H]C1([2H])Oc2cc(C(=O)N3Cc4ccccc4C[C@H]3CN3CCOCC3)c(-c3cc(C(=O)N(c4ccc(O)cc4)c4ccc5c(ccn5C)c4)c4n3CCCC4)cc2O1 [Example 37, N-(4-Hydroxyphenyl)-N-(1-methyl-1H-indol-5-yl)-3-{2,2-dideuterio-6-[((3S)-3-(4-morpholinylmethyl)-3,4-dihydro-2(1H)-isoquinolinyl)carbonyl]-1,3-benzodioxol-5-yl}-5,6,7,8-tetrahydro-1-indolizine carboxamide hydrochloride]",11.6 nM,–
